Experimental data taken from ChEMBL document CHEMBL4813973, “Discovery of novel N-benzylbenzamide derivatives as tubulin polymerization inhibitors with potent antitumor activities” (Eur J Med Chem, 2021).
≈ marks a conversion by molar mass, not a printed value.

What was measured:
[1] = tested on: A-431; assay: Antiproliferative activity against human A-431 cells assessed as reduction in cell viability incubated for 72 hrs by MTT assay; type: functional, cell-based; conditions: A-431, 72 h
[2] = tested on: H22; assay: Antiproliferative activity against mouse H22 cells assessed as reduction in cell viability incubated for 72 hrs by MTT assay; type: functional, cell-based; conditions: H22, 72 h
[3] = tested on: K562; assay: cells; conditions: Homo sapiens, K562, 72 h
Description: Antiproliferative activity against human K562 cells assessed as reduction in cell viability incubated for 72 hrs by MTT assay

[4] = tested on: HCT-8; assay: Antiproliferative activity against human HCT-8 cells assessed as reduction in cell viability incubated for 72 hrs by MTT assay; type: functional, cell-based; conditions: Homo sapiens, HCT-8, 72 h; read-out: IC50
[5] = tested on: MDA-MB-231; assay: Antiproliferative activity against human MDA-MB-231 cells assessed as reduction in cell viability incubated for 72 hrs by MTT assay; type: functional, cell-based; conditions: MDA-MB-231, 72 h
[6] = tested on: HepG2; assay: cells; conditions: Homo sapiens, HepG2, 72 h
[7] = tested on: L02; assay: Cytotoxicity against human L02 cells assessed as reduction in cell viability incubated for 72 hrs by MTT assay; type: cell-based; conditions: L02, 72 h
[8] = n-Octanol/water partition coefficient, logD of the compound incubated for 24 hrs at pH 7.4 by HPLC analysis; type: physicochemical
[9] = Aqueous solubility of the compound in phosphate buffer at pH 7.4 by HPLC-UV analysis; type: physicochemical
[10] = Aqueous solubility of the compound in aqueous HCl at pH 2 by HPLC-UV analysis; type: physicochemical
[11] = tested on: H22; assay: Antitumor activity against […] xenografted in ICR mouse assessed as reduction of tumor weight at 20 mg/kg/day, iv for 21 days; type: functional; conditions: 504 h, time 21 day
[12] = Inhibition of pig brain tubulin polymerisation incubated for 30 mins and measured every 2 mins for 60 mins by spectrophotometric method; type: tissue-based, Sus scrofa
[13] = tested on: Bel-7402; assay: Antiproliferative activity against ADR-resistant human Bel-7402 cells assessed as reduction in cell viability incubated for 72 hrs by MTT assay; type: functional, cell-based; conditions: Homo sapiens, Bel-7402, 72 h; read-out: IC50
[14] = Resistant index, ratio of IC50 for VCR resistant human K562 cells to IC50 for human K562 cells; type: functional
[15] = tested on: HCT-8; assay: Antiproliferative activity against taxol-resistant human HCT-8 cells assessed as reduction in cell viability incubated for 72 hrs by MTT assay; type: functional, cell-based; conditions: Homo sapiens, HCT-8, 72 h; read-out: IC50
[16] = Resistant index, ratio of IC50 for ADR-resistant human Bel-7402 cells to IC50 for human Bel-7402 cells; type: functional
[17] = species on record: Sus scrofa; assay: Inhibition of [3H]colchicine binding to biotinylated pig brain tubulin at 1 uM incubated for 2 hrs in presence of GTP by competitive scintillation proximity assay; type: tissue-based
[18] = species on record: Sus scrofa; assay: Inhibition of [3H]colchicine binding to biotinylated pig brain tubulin at 5 uM incubated for 2 hrs in presence of GTP by competitive scintillation proximity assay; type: tissue-based
[19] = Resistant index, ratio of IC50 for taxol-resistant human HCT-8 cells to IC50 for human HCT-8 cells; type: functional

SMILES: COc1ccc(CNC(=O)c2cc(-c3ccncc3)ccc2N2CCOCC2)cc1O
- IC50 [1]: 388 nM

SMILES: COc1ccc(C(C)NC(=O)c2cc([N+](=O)[O-])ccc2N2CCOCC2)cc1 (stereo not drawn)
- IC50 [1]: 241 nM

SMILES: COc1ccc(CNC(=O)c2cc(Br)ccc2N2CCCCC2)cc1O
- IC50 [1]: 92 nM

SMILES: COc1ccc(CNC(=O)c2cc([N+](=O)[O-])ccc2N2CCNCC2)cc1O
- IC50 [1]: > 1000 nM

SMILES: COc1ccc(CNC(=O)c2cc([N+](=O)[O-])ccc2N2CCCCC2)cc1O
- IC50 [2]: 25 nM
- IC50 [3]: 19 nM
- IC50 [1]: 12 nM
- IC50 [4]: 11 nM
- IC50 [5]: 29 nM
- IC50 [6]: 12 nM
- IC50 [7]: 120 nM

SMILES: COc1ccc(CNc2ccc(N3CCOCC3)c(C(=O)NCc3ccc(OC)c(O)c3)c2)cc1
- IC50 [1]: 306 nM

SMILES: COc1ccc(CNC(=O)c2ccccc2N2CCCCC2)cc1O
- IC50 [2]: 29 nM
- IC50 [3]: 30 nM
- IC50 [1]: 30 nM
- IC50 [4]: 29 nM
- IC50 [5]: 29 nM
- IC50 [6]: 31 nM
- IC50 [7]: 97 nM

SMILES: O=C(NCc1ccc(OC(F)(F)F)cc1)c1cc([N+](=O)[O-])ccc1N1CCOCC1
- IC50 [1]: > 1000 nM

SMILES: COc1ccc(CNC(=O)c2cc(Cl)ccc2N2CCOCC2)cc1O
- IC50 [2]: 31 nM
- IC50 [3]: 32 nM
- IC50 [1]: 25 nM
- IC50 [4]: 25 nM
- IC50 [5]: 30 nM
- IC50 [6]: 29 nM
- IC50 [7]: 95 nM

SMILES: COc1ccc(CNC(=O)c2cc([N+](=O)[O-])ccc2N2CCOCC2)cc1
- IC50 [1]: 127 nM

SMILES: COc1ccc(CNC(=O)c2cc(O)ccc2N2CCOCC2)cc1O
- IC50 [1]: 121 nM

SMILES: O=C(OCc1ccc2[nH]ccc2c1)c1cc([N+](=O)[O-])ccc1N1CCOCC1
- IC50 [1]: > 1000 nM

SMILES: COc1ccc(CNC(=O)c2cnccc2N2CCOCC2)cc1O
- IC50 [1]: 977 nM

SMILES: COc1ccc(CNC(=O)c2cc([N+](=O)[O-])ccc2N(C)C)cc1O
- IC50 [1]: > 1000 nM

SMILES: COc1ccc(CNC(=O)c2cc(NCc3ccco3)ccc2N2CCOCC2)cc1O
- IC50 [1]: 315 nM

SMILES: COc1ccc(CNC(=O)c2cc([N+](=O)[O-])ccc2N2CCOCC2)cc1F
- IC50 [1]: 93 nM

SMILES: COc1ccc(CNC(=O)c2cc(Br)ccc2N2CCOCC2)cc1O
- IC50 [2]: 24 nM
- IC50 [3]: 24 nM
- IC50 [1]: 30 nM
- IC50 [4]: 30 nM
- IC50 [5]: 29 nM
- IC50 [6]: 31 nM
- IC50 [7]: 108 nM

SMILES: COc1ccc(CNC(=O)c2cc([N+](=O)[O-])ccc2N2CCOCC2)cc1O
- IC50 [2]: 50 nM
- IC50 [3]: 59 nM
- IC50 [1]: 45 nM
- IC50 [4]: 60 nM
- IC50 [5]: 57 nM
- IC50 [6]: 61 nM
- IC50 [7]: 116 nM

SMILES: COc1ccc(CNC(=O)c2cc(F)ccc2N2CCCCC2)cc1O
- logD at 24 h [8]: 2.97
- IC50 [2]: 32 nM
- solubility [9]: < 1 µg/mL
- IC50 [3]: 11 nM
- IC50 [1]: 25 nM
- IC50 [4]: 29 nM
- IC50 [5]: 86 nM
- IC50 [6]: 26 nM
- IC50 [7]: 88 nM
- solubility [10]: 1110 µg/mL (≈ 3090 µM)

SMILES: COc1ccc(N2CCCCC2)c(C(=O)NCc2ccc(OC)c(O)c2)c1
- IC50 [1]: 57 nM

SMILES: O=C(NCc1ccncc1)c1cc([N+](=O)[O-])ccc1N1CCOCC1
- IC50 [1]: > 1000 nM

SMILES: COc1ccc(CNC(=O)c2ccccc2N2CCOCC2)cc1O
- IC50 [2]: 49 nM
- IC50 [3]: 30 nM
- IC50 [1]: 20 nM
- IC50 [4]: 62 nM
- IC50 [5]: 55 nM
- IC50 [6]: 48 nM
- IC50 [7]: 105 nM

SMILES: COc1ccc(CNC(=O)c2cc(NCc3ccncc3)ccc2N2CCOCC2)cc1O
- IC50 [1]: 1080 nM

SMILES: COc1ccc(CNC(=O)c2cc([N+](=O)[O-])ccc2N2CCOCC2)cc1OC
- IC50 [1]: > 1000 nM

SMILES: COCCNc1ccc([N+](=O)[O-])cc1C(=O)NCc1ccc(OC)c(O)c1
- IC50 [1]: > 1000 nM

SMILES: COc1ccc(CNC(=O)c2cc([N+](=O)[O-])ccc2N2CCOCC2)cn1
- IC50 [1]: > 1000 nM

SMILES: COc1ccc(CNC(=O)c2cc(NC(C)=O)ccc2N2CCOCC2)cc1O
- IC50 [1]: 220 nM

SMILES: O=C(OCc1cccc2[nH]ccc12)c1cc([N+](=O)[O-])ccc1N1CCOCC1
- IC50 [1]: > 1000 nM

SMILES: CCN(CC)c1ccc([N+](=O)[O-])cc1C(=O)NCc1ccc(OC)c(O)c1
- IC50 [1]: 51 nM

SMILES: O=C(NCc1ccc(C(F)(F)F)cc1)c1cc([N+](=O)[O-])ccc1N1CCOCC1
- IC50 [1]: > 1000 nM

SMILES: CN(C)c1ccc(CNC(=O)c2cc([N+](=O)[O-])ccc2N2CCOCC2)cc1
- IC50 [1]: 145 nM

SMILES: COc1ccc(CNC(=O)c2cc(NC(=O)c3ccco3)ccc2N2CCOCC2)cc1O
- IC50 [1]: 478 nM

SMILES: COc1ccc(CNC(=O)c2cc([N+](=O)[O-])ccc2N2CCCC2)cc1O
- IC50 [1]: 372 nM

SMILES: COc1ccc(C(=O)Nc2ccc(N3CCOCC3)c(C(=O)NCc3ccc(OC)c(O)c3)c2)cc1
- IC50 [1]: > 1000 nM

SMILES: O=C(NCc1ccc(O)cc1)c1cc([N+](=O)[O-])ccc1N1CCOCC1
- IC50 [1]: > 1000 nM

SMILES: O=C(NCc1ccc(Cl)cc1)c1cc([N+](=O)[O-])ccc1N1CCOCC1
- IC50 [1]: > 1000 nM

SMILES: COc1ccc(/C=C\c2cc(OC)c(OC)c(OC)c2)cc1OP(=O)(O)O [FOSBRETABULIN]
- inhibition in vivo at 20 mg/kg/day [11]: 62.7%

SMILES: COc1ccc(CNC(=O)c2cc([N+](=O)[O-])ccc2N2CCSCC2)cc1O
- IC50 [2]: 55 nM
- IC50 [3]: 49 nM
- IC50 [1]: 60 nM
- IC50 [4]: 60 nM
- IC50 [5]: 62 nM
- IC50 [6]: 58 nM
- IC50 [7]: 113 nM

SMILES: COc1ccc(CNC(=O)c2cc(C(F)(F)F)ccc2N2CCOCC2)cc1O
- IC50 [2]: 55 nM
- IC50 [3]: 40 nM
- IC50 [1]: 37 nM
- IC50 [4]: 56 nM
- IC50 [5]: 57 nM
- IC50 [6]: 62 nM
- IC50 [7]: 103 nM

SMILES: CSc1ccc(CNC(=O)c2cc([N+](=O)[O-])ccc2N2CCOCC2)cc1
- IC50 [1]: 221 nM

SMILES: COc1ccc(CNC(=O)c2cc(-c3ccco3)ccc2N2CCOCC2)cc1O
- IC50 [1]: 215 nM

SMILES: COc1ccc(CNC(=O)c2ccc([N+](=O)[O-])cc2N2CCOCC2)cc1O
- IC50 [1]: 224 nM

SMILES: COc1ccc(CNC(=O)c2cc(NC(=O)c3ccncc3)ccc2N2CCOCC2)cc1O
- IC50 [1]: 962 nM

SMILES: COc1ccc(CNC(=O)c2cc([N+](=O)[O-])ccc2N2CCS(=O)(=O)CC2)cc1O
- IC50 [1]: > 1000 nM

SMILES: COc1ccc(CNC(=O)c2cc(C(F)(F)F)ccc2N2CCCCC2)cc1O
- IC50 [1]: 97 nM

SMILES: COc1ccc(-c2ccc(N3CCOCC3)c(C(=O)NCc3ccc(OC)c(O)c3)c2)cc1
- IC50 [1]: 154 nM

SMILES: COc1cc(CNC(=O)c2cc([N+](=O)[O-])ccc2N2CCOCC2)cc(OC)c1OC
- IC50 [1]: > 1000 nM

SMILES: COc1ccc(/C=C\c2cc(OC)c(OC)c(OC)c2)cc1O [COMBRETASTATIN A4]
- IC50 [12]: 2640 nM
- IC50 [13]: 58 nM
- logD at 24 h [8]: 2.68
- Ratio IC50 [14]: 8.1
- IC50 [2]: 15 nM
- IC50 [15]: 87 nM
- solubility [9]: 1 µg/mL (≈ 3.16 µM)
- Ratio IC50 [16]: 5.3
- inhibition in vivo at 20 mg/kg/day [11]: 54.9%
- inhibition [17]: 80.2%
- IC50 [6]: 10 nM
- inhibition [18]: 90.3%
- solubility [10]: < 1 µg/mL
- Ratio IC50 [19]: 7.9

SMILES: COc1ccc(CNC(=O)c2cc(N(C)C)ccc2N2CCOCC2)cc1O
- IC50 [1]: 105 nM

SMILES: CCOc1ccc(CNC(=O)c2cc([N+](=O)[O-])ccc2N2CCOCC2)cc1
- IC50 [1]: 143 nM

SMILES: COc1ccc(N2CCOCC2)c(C(=O)NCc2ccc(OC)c(O)c2)c1
- IC50 [2]: 32 nM
- IC50 [3]: 61 nM
- IC50 [1]: 28 nM
- IC50 [4]: 27 nM
- IC50 [5]: 29 nM
- IC50 [6]: 29 nM
- IC50 [7]: 52 nM

SMILES: COc1ccc(CNC(=O)c2ccncc2N2CCOCC2)cc1O
- IC50 [1]: 118 nM
